Test results: US20220135591A1, “HETEROCYCLIC COMPOUNDS AS INHIBITORS OF MONOACYLGLYCEROL LIPASE (MAGL)” (Hoffmann-La Roche Inc., priority 2019, published 2022)

Target: T1, MAGL (Homo sapiens, UniProt Q99685)
T1 sequence (Q99685 1-303): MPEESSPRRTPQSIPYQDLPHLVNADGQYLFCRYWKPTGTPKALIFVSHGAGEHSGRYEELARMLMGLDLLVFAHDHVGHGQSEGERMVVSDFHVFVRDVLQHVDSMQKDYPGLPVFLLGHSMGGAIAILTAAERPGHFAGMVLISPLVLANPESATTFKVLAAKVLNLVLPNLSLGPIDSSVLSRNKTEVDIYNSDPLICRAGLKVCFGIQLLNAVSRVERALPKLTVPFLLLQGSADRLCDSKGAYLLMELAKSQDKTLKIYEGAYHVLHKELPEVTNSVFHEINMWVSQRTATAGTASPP
Assay: 2-AG assay: MAGL inhibitory activity by hydrolysis of 2-arachidonoylglycerol to arachidonic acid, mass spectrometry
Assay type: biochemical
Settings: 2-AG assay (values marked [b])
Protocol: Alternatively, compounds were profiled for MAGL inhibitory activity by determining the enzymatic activity by following the hydrolysis of the natural substrate 2-arachidonoylglycerol (2-AG) resulting in arachidonic acid, which can be followed by mass spectrometry. This assay is hereinafter abbreviated “2-AG assay”.
The 2-AG assay was carried out in 384 well assay plates (PP, Greiner Cat #784201) in a total volume of 20 μL. Compound dilutions were made in 100% DMSO (VWR Chemicals 23500.297) in a polypropylene plate in 3-fold dilution steps to give a final concentration range in the assay from 12.5 μM to […]. 0.25 μL compound dilutions (100% DMSO) were added to 9 μL MAGL in assay buffer (50 mM TRIS (GIBCO, 15567-027), 1 mM EDTA (Fluka, 03690-100 mL), 0.01% (v/v) Tween. After shaking, the plate was incubated for 15 min at RT. To start the reaction, 10 μL 2-arachidonoylglycerol in assay buffer was added. The final concentrations in the assay was […] and 8 μM 2-arachidonoylglyerol. After shaking and 30 min incubation at RT, the reaction was quenched by the addition of 40 μL of ACN containing 4 μM of d8-arachidonic acid. The amount of arachidonic acid was traced by an online SPE system (Agilent Rapidfire) coupled to a triple quadrupole mass spectrometer (Agilent 6460). A C18 SPE cartridge (G9205A) was used in an ACN/water liquid setup. The mass spectrometer was operated in negative electrospray mode following the mass transitions 303.1→259.1 for arachidonic acid and 311.1→267.0 for d8-arachidonic acid. The activity of the compounds was calculated based on the ratio of intensities [arachidonic acid/d8-arachidonic acid].

In order of rising IC50:
1. Cc1ccc2oc(N3CCN(C(=O)c4cnc(-n5cc(C(C)(C)C)cn5)c(C)c4)CC3)nc2n1 [Example 130, [6-(4-tert-butylpyrazol-1-yl)-5-methylpyridin-3-yl]-[4-(5-methyl-[1,3]oxazolo[4,5-b]pyridin-2-yl)piperazin-1-yl]methanone]  8 nM
2. O=C(c1cnc(OCC2(C(F)(F)F)CC2)c(C(F)(F)F)c1)N1CCN(c2nc3nc(Cl)ccc3o2)CC1 [Example 154, (4-(5-chlorooxazolo[4,5-b]pyridin-2-yl)piperazin-1-yl)(5-(trifluoromethyl)-6-((1-(trifluoromethyl)cyclopropyl)methoxy)pyridin-3-yl)methanone]  8 nM
3. Cc1cc(C(=O)N2CCN(c3nc4nc(Cl)ccc4o3)CC2)cnc1OCC1(C(F)(F)F)CC1 [Example 153, (4-(5-chlorooxazolo[4,5-b]pyridin-2-yl)piperazin-1-yl)(5-methyl-6-((1-(trifluoromethyl)cyclopropyl)methoxy)pyridin-3-yl)methanone]  10 nM
4. Cc1cc(C(=O)N2CCN(c3nc4nc(Cl)ccc4o3)CC2)cnc1OCC1(C)CC1(F)F (centres unmarked) [Example 158, (4-(5-chlorooxazolo[4,5-b]pyridin-2-yl)piperazin-1-yl)(6-((2,2-difluoro-1-methylcyclopropyl)methoxy)-5-methylpyridin-3-yl)methanone]  11 nM
5. O=C(c1cnc(OCC2(C(F)(F)F)CC2)c(Cl)c1)N1CCN(c2nc3nc(Cl)ccc3o2)CC1 [Example 152, (5-chloro-6-((1-(trifluoromethyl)cyclopropyl)methoxy)pyridin-3-yl)(4-(5-chlorooxazolo[4,5-b]pyridin-2-yl)piperazin-1-yl)methanone]  15 nM
6. CC1(COc2ncc(C(=O)N3CCN(c4nc5nc(Cl)ccc5o4)CC3)cc2Cl)CC1 [Example 149, (5-chloro-6-((1-methylcyclopropyl)methoxy)pyridin-3-yl)(4-(5-chlorooxazolo[4,5-b]pyridin-2-yl)piperazin-1-yl)methanone]  20 nM
7. Cc1cc(C(=O)N2CCN(c3nc4nc(Cl)ccc4o3)CC2)cnc1OCC1(C)CC1 [Example 156, (4-(5-chlorooxazolo[4,5-b]pyridin-2-yl)piperazin-1-yl)(5-methyl-6-((1-methylcyclopropyl)methoxy)pyridin-3-yl)methanone]  21 nM
8. CC(C)(C#N)Cn1ncc(-c2ccc(C(=O)N3CCN(c4nc5nc(Cl)ccc5o4)CC3)cc2)n1 [Example 136, 3-[4-[4-[4-(5-chlorooxazolo[4,5-b]pyridin-2-yl)piperazine-1-carbonyl]phenyl]triazol-2-yl]-2,2-dimethyl-propanenitrile]  34 nM
9. Cc1nc(C(=O)N2CCN(c3nc4nc(Cl)ccc4o3)CC2)cnc1OCC1(C(F)(F)F)CC1 [Example 137, [4-(5-chlorooxazolo[4,5-b]pyridin-2-yl)piperazin-1-yl]-[6-methyl-5-[[1-(trifluoromethyl)cyclopropyl]methoxy]pyrazin-2-yl]methanone]  34 nM
10. CC(C)(C#N)Cn1cc(-c2ccc(C(=O)N3CCN(c4nc5nc(Cl)ccc5o4)CC3)cc2)nn1 [Example 131, 3-[4-[4-[4-(5-chlorooxazolo[4,5-b]pyridin-2-yl)piperazine-1-carbonyl]phenyl]triazol-1-yl]-2,2-dimethyl-propanenitrile]  35 nM
11. Cc1ccc2oc(N3CCN(C(=O)c4cnc(OCC5(C(F)(F)F)CC5)c(F)c4)CC3)nc2n1 [Example 150, (5-fluoro-6-((1-(trifluoromethyl)cyclopropyl)methoxy)pyridin-3-yl)(4-(5-methyloxazolo[4,5-b]pyridin-2-yl)piperazin-1-yl)methanone]  46 nM
12. CC(C)(CF)n1cc(-c2ccc(C(=O)N3CCN(c4nc5nc(Cl)ccc5o4)CC3)cc2)nn1 [Example 134, (4-(5-chlorooxazolo[4,5-b]pyridin-2-yl)piperazin-1-yl)(4-(1-(1-fluoro-2-methylpropan-2-yl)-1H-1,2,3-triazol-4-yl)phenyl)methanone]  48 nM
13. CC(C)(F)Cn1cc(-c2ccc(C(=O)N3CCN(c4nc5nc(Cl)ccc5o4)CC3)cc2)nn1 [Example 132, (4-(5-chlorooxazolo[4,5-b]pyridin-2-yl)piperazin-1-yl)(4-(1-(2-fluoro-2-methylpropyl)-1H-1,2,3-triazol-4-yl)phenyl)methanone]  49 nM
14. Cc1cc(C(=O)N2CCN(c3nc4nc(Cl)ccc4o3)CC2)cnc1-n1cnc(C(C)(C)C)n1 [Example 129, [6-(3-tert-butyl-1,2,4-triazol-1-yl)-5-methylpyridin-3-yl]-[4-(5-chloro-[1,3]oxazolo[4,5-b]pyridin-2-yl)piperazin-1-yl]methanone]  52 nM
15. Cc1ccc2oc(N3CCN(C(=O)c4cnc(OCC5(C(F)(F)F)CC5)c(OCC5(C(F)(F)F)CC5)c4)CC3)nc2n1 [Example 151, (5,6-bis((1-(trifluoromethyl)cyclopropyl)methoxy)pyridin-3-yl)(4-(5-methyloxazolo[4,5-b]pyridin-2-yl)piperazin-1-yl)methanone]  55 nM
16. Cc1cc(C(=O)N2CCN(c3nc4nc(Cl)ccc4o3)CC2)cnc1OCC1CC1 [Example 155, (4-(5-chlorooxazolo[4,5-b]pyridin-2-yl)piperazin-1-yl)(6-(cyclopropylmethoxy)-5-methylpyridin-3-yl)methanone]  90 nM
17. Cc1ccc2oc(N3CCN(C(=O)c4ccc(-c5cn(CC(C)(C)F)nn5)cc4)CC3)nc2n1 [Example 133, (4-(1-(2-fluoro-2-methylpropyl)-1H-1,2,3-triazol-4-yl)phenyl)(4-(5-methyloxazolo[4,5-b]pyridin-2-yl)piperazin-1-yl)methanone]  94 nM
18. Cc1ccc2oc(N3CCN(C(=O)c4cnc(-n5cnc(C(C)(C)C)n5)c(C)c4)CC3)nc2n1 [Example 128, [6-(3-tert-butyl-1,2,4-triazol-1-yl)-5-methylpyridin-3-yl]-[4-(5-methyl-[1,3]oxazolo[4,5-b]pyridin-2-yl)piperazin-1-yl]methanone]  107 nM
19. Cc1ccc2oc(N3CCN(C(=O)c4ccc(-c5cn(C(C)(C)CF)nn5)cc4)CC3)nc2n1 [Example 135, (4-(1-(1-fluoro-2-methylpropan-2-yl)-1H-1,2,3-triazol-4-yl)phenyl)(4-(5-methyloxazolo[4,5-b]pyridin-2-yl)piperazin-1-yl)methanone]  116 nM
20. COc1cc(C(=O)N2CCN(c3nc4nc(Cl)ccc4o3)CC2)cnc1OCC1(C(F)(F)F)CC1 [Example 138, [4-(5-chlorooxazolo[4,5-b]pyridin-2-yl)piperazin-1-yl]-[5-methoxy-6-[[1-(trifluoromethyl)cyclopropyl]methoxy]-3-pyridyl]methanone]  183 nM
21. Cc1ccc2oc(N3CCN(C(=O)c4cnc(OCC5(C)CC5)c(F)c4)CC3)nc2n1 [Example 148, (5-fluoro-6-((1-methylcyclopropyl)methoxy)pyridin-3-yl)(4-(5-methyloxazolo[4,5-b]pyridin-2-yl)piperazin-1-yl)methanone]  226 nM
22. Cc1ccc2oc(N3CCN(C(=O)c4ccc(-c5nc(C(C)(C)C)nn5C)cc4)CC3)nc2n1 [Example 127, [4-(5-tert-butyl-2-methyl-1,2,4-triazol-3-yl)phenyl]-[4-(5-methyloxazolo[4,5-b]pyridin-2-yl)piperazin-1-yl]methanone]  228 nM
23. Cc1cc(C(=O)N2CCN(c3nc4nc(Cl)ccc4o3)CC2)cnc1OCC1(C)COC1 [Example 157, (4-(5-chlorooxazolo[4,5-b]pyridin-2-yl)piperazin-1-yl)(5-methyl-6-((3-methyloxetan-3-yl)methoxy)pyridin-3-yl)methanone]  317 nM
24. Cc1nc(C(=O)N2CCN(c3nc4nc(Cl)ccc4o3)CC2)ccc1OCC1(C(F)(F)F)CC1 [Example 140, [4-(5-chlorooxazolo[4,5-b]pyridin-2-yl)piperazin-1-yl]-[6-methyl-5-[[1-(trifluoromethyl)cyclopropyl]methoxy]-2-pyridyl]methanone]  326 nM
25. Cc1ccc2oc(N3CCN(C(=O)c4ccc(OCC5(C(F)(F)F)CC5)c(C)n4)CC3)nc2n1 [Example 139, [4-(5-methyloxazolo[4,5-b]pyridin-2-yl)piperazin-1-yl]-[6-methyl-5-[[1-(trifluoromethyl)cyclopropyl]methoxy]-2-pyridyl]methanone]  387 nM
26. Cc1ccc2oc(N3CCN(C(=O)c4ccc(-c5cn(CC6(F)CC6)nn5)cc4)CC3)nc2n1 [Example 126, (4-(1-((1-fluorocyclopropyl)methyl)-1H-1,2,3-triazol-4-yl)phenyl)(4-(5-methyloxazolo[4,5-b]pyridin-2-yl)piperazin-1-yl)methanone]  472 nM
